The structures appear in SMILES notation.

Broadly, the IC50 is the concentration at which inhibition is half-maximal.

The target of one test is T1, RORc ligand binding domain (Homo sapiens, UniProt P51449).
T1 construct: host or cells: E. coli
T1 sequence (P51449 269-508 limits assumed): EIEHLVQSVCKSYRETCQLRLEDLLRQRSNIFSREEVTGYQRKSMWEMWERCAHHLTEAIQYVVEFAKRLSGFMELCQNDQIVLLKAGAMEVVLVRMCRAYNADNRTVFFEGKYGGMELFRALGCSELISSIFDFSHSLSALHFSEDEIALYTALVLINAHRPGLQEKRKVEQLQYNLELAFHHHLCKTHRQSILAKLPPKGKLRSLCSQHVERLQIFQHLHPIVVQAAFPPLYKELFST
Briefly: In Vitro RORc Ligand Binding Assay (25-[3H]hydroxycholesterol radioligand filtration). As to conditions: In Vitro RORc Ligand Binding Assay; Table 4; read-out: RORc IC50.
For the molecule `CC(=O)N1CCN(c2ccc(CN3[C@@H](C)CCC(c4ccccc4)S3(=O)=O)c(F)c2)C[C@H]1C(=O)N(C)C` (stereo partly drawn) [Example 379, (S)-1-Acetyl-4-[3-fluoro-4-((3S)-methyl-1,1-dioxo-6-phenyl-[1,2]thiazinan-2-ylmethyl)-phenyl]-piperazine-2-carboxylic acid dimethylamide], the IC50 was determined as 882 nM.

On to `CN/C(=C\[N+](=O)[O-])N1CCN(c2ccc(CN3[C@@H](C)CCC(c4ccccc4)S3(=O)=O)c(F)c2)CC1` (stereo partly drawn) [Example 126, ((E)-1-{4-[3-Fluoro-4-((3S)-3-methyl-1,1-dioxo-6-phenyl-[1,2]thiazinan-2-ylmethyl)-phenyl]-piperazin-1-yl}-2-nitro-vinyl)-methyl-amine], for which the IC50 came out at 258 nM.

Consider `C[C@H]1CCC(c2ccccc2)S(=O)(=O)N1Cc1ccc(N2CCC(c3n[nH]c(=O)o3)CC2)cc1F` (single isomer, unassigned) [Example 144], for which the IC50 is 21 nM.

On to `CC(=O)N1CCN(c2ccc(CN3C4CC(C4)CC(c4ccccc4)S3(=O)=O)c(F)c2)CC1` (single isomer, unassigned) [Example 300, 1-{4-[4-(3,3-Dioxo-4-phenyl-3-thia-2-aza-bicyclo[4.1.1]oct-2-ylmethyl)-3-fluoro-phenyl]-piperazin-1-yl}-ethanone], for which the 50% inhibitory concentration (IC50) came to 44 nM.

For `C[C@H]1CCC(c2ccccc2)S(=O)(=O)N1Cc1ccc(OC2CCN(S(C)(=O)=O)CC2)cc1F` (single isomer, unassigned) [Example 33], the concentration for half-maximal inhibition (IC50) was found to be 13 nM.

On to `CC(=O)N1CCN(c2ccc(CN3[C@@H](C)CCC(c4ccccc4)S3(=O)=O)c(Cl)c2)CC1` (stereo partly drawn) [Example 180, 1-{4-[3-Chloro-4-((3S)-3-methyl-1,1-dioxo-6-phenyl-[1,2]thiazinan-2-ylmethyl)-phenyl]-piperazin-1-yl}-ethanone], for which the 50% inhibitory concentration (IC50) came out at 1580 nM.

Take `CC(=O)N1CCN(c2ccc(CN3[C@H](C)CCC(c4ccccc4)S3(=O)=O)c(F)c2)CC1` (single isomer, unassigned) [Example 19]: the IC50 was 2800 nM.

Consider `C[C@H]1CCC(c2ccccc2)S(=O)(=O)N1Cc1ccc(NC2CCN(S(C)(=O)=O)CC2)cc1F` (single isomer, unassigned) [Example 167], for which the IC50 stood at 9 nM.

For the molecule `CC(=O)N1CCN(c2ccc(CN3[C@@H](C)CCC(c4ccccc4)S3(=O)=O)c(F)c2)[C@@H](C)C1` (stereo partly drawn) [Example 237, 1-{4-[3-Fluoro-4-((3S)-methyl-1,1-dioxo-6-phenyl-[1,2]thiazinan-2-ylmethyl)-phenyl]-3-methyl-piperazin-1-yl}-ethanone], the IC50 was found to be 6 nM.

Consider `C[C@H]1CCC(c2ccccc2)S(=O)(=O)N1Cc1ccc(N2CCN(C(=O)CCC#N)CC2)cc1F` (single isomer, unassigned) [Example 73], for which the IC50 was 466 nM.

Turning to `CC(=O)N1CCN(c2ccc(CN3CCOCC(c4ccccc4)S3(=O)=O)c(F)c2)CC1` (single isomer, unassigned) [Example 22, 1-{4-[4-(4,4-Dioxo-3-phenyl-[1,4,5]oxathiazepan-5-ylmethyl)-3-fluoro-phenyl]-piperazin-1-yl}-ethanone], the half-inhibitory concentration (IC50) is 751 nM.

Turning to `C[C@H]1CCC(c2ccccc2)S(=O)(=O)N1Cc1ccc(N[C@H]2CC[C@@H](n3cnnc3)CC2)cc1F` (stereo partly drawn) [Example 231, [3-Fluoro-4-((3S)-methyl-1,1-dioxo-6-phenyl-[1,2]thiazinan-2-ylmethyl)-phenyl]-(4-[1,2,4]triazol-4-yl-cyclohexyl)-amine], the half-inhibitory concentration (IC50) came out at 73 nM.

Turning to `C[C@H]1CN(c2ccc(CN3[C@@H](C)CCC(c4ccccc4)S3(=O)=O)c(F)c2)CCN1C(=O)CC#N` (stereo partly drawn) [Example 263, 3-{4-[3-Fluoro-4-((3S)-methyl-1,1-dioxo-6-phenyl-[1,2]thiazinan-2-ylmethyl)-phenyl]-2-methyl-piperazin-1-yl}-3-oxo-propionitrile], the IC50 is 15 nM.

As to `CC(=O)N1CCN(c2ccc(CN3[C@@H](C)CCC(c4ccc(F)cc4)S3(=O)=O)c(F)c2)CC1` (single isomer, unassigned) [Example 122], the IC50 came to 47 nM.

With `C[C@H]1CCC(c2ccccc2)S(=O)(=O)N1Cc1ccc(N2CCN(C3=CC(=O)CC3)CC2)cc1F` (stereo partly drawn) [Example 123, 3-{4-[3-Fluoro-4-((3S)-3-methyl-1,1-dioxo-6-phenyl-[1,2]thiazinan-2-ylmethyl)-phenyl]-piperazin-1-yl}-cyclopent-2-enone], the half-maximal inhibitory concentration (IC50) was determined as 89 nM.

On to `C[C@H]1CCC(c2ccccc2)S(=O)(=O)N1Cc1ccc(N2CC3(CCOC3)C2)cc1F` (single isomer, unassigned) [Example 94], for which the IC50 came to 54 nM.

With `O=S1(=O)C(c2ccccc2)CCCCN1Cc1ccc(N2CCC(n3cnnc3)CC2)cc1F` (single isomer, unassigned) [Example 323, 2-[2-Fluoro-4-(4-[1,2,4]triazol-4-yl-piperidin-1-yl)-benzyl]-7-phenyl-[1,2]thiazepane 1,1-dioxide], the IC50 is 2 nM.

Take `C[C@H]1CCC(c2ccccc2)S(=O)(=O)N1Cc1ccc(N2CCC(c3nnn[nH]3)CC2)cc1F` (single isomer, unassigned) [Example 142]: the IC50 amounted to 192 nM.

On to `CC(=O)N1CCN(c2ccc(CN3[C@@H](C)CCC(c4ccccc4)S3(=O)=O)c(C)c2)CC1` (single isomer, unassigned) [Example 132], for which the IC50 worked out at 3930 nM.

With `C[C@H]1CCC(c2ccccc2)S(=O)(=O)N1Cc1ccc(C(=O)NC2CCCC(O)C2)cc1` (stereo partly drawn) [Example 273, N-(3-Hydroxy-cyclohexyl)-4-((3S)-methyl-1,1-dioxo-6-phenyl-[1,2]thiazinan-2-ylmethyl)-benzamide], the IC50 was found to be 5470 nM.

As for `C[C@H]1CCC(c2ccccc2)S(=O)(=O)N1Cc1ccc(N2CCc3[nH]ncc3C2)cc1F` (single isomer, unassigned) [Example 145], the IC50 came to 242 nM.

`C[C@H]1CCC(c2ccccc2)S(=O)(=O)N1Cc1ccc(C(=O)NC2CN(C(N)=O)C2)cc1` (stereo partly drawn) [Example 390, 3-[4-((3S)-Methyl-1,1-dioxo-6-phenyl-[1,2]thiazinan-2-ylmethyl)-benzoylamino]-azetidine-1-carboxylic acid amide]: the IC50 was 5460 nM.

For the molecule `CC(=O)N1CCN(c2ccc(CN3[C@@H](C)CCC(c4ccccc4)S3(=O)=O)cc2)CC1` (single isomer, unassigned) [Example 41], the IC50 turned out to be 126 nM.

As for `C[C@H]1CCC(c2ccccc2)S(=O)(=O)N1Cc1ccc(C(=O)N2CCCC(CO)C2)cc1` (stereo partly drawn) [Example 281, (3-Hydroxymethyl-piperidin-1-yl)-[4-((3S)-methyl-1,1-dioxo-6-phenyl-[1,2]thiazinan-2-ylmethyl)-phenyl]-methanone], the IC50 was found to be 2040 nM.

As to `CS(=O)(=O)N1CCC(Nc2ccc(CN3CC4(CC4)CC(c4ccccc4)S3(=O)=O)c(F)c2)CC1` (single isomer, unassigned) [Example 249, 5-(2-fluoro-4-((1-(methylsulfonyl)piperidin-4-yl)amino)benzyl)-7-phenyl-6-thia-5-azaspiro[2.5]octane 6,6-dioxide], the IC50 is 37 nM.

As for `C[C@H]1CCC(c2ccccc2)S(=O)(=O)N1Cc1ccc(N[C@H]2C[C@H](n3cnnc3)C2)cc1F` (stereo partly drawn) [Example 234, [3-Fluoro-4-((3S)-methyl-1,1-dioxo-6-phenyl-[1,2]thiazinan-2-ylmethyl)-phenyl]-(3-[1,2,4]triazol-4-yl-cyclobutyl)-amine], the IC50 came out at 132 nM.

Take `C[C@H]1CCC(c2ccccc2)S(=O)(=O)N1Cc1ccc(C(=O)NCCN2CCCCC2=O)cc1` (stereo partly drawn) [Example 277, 4-((3S)-Methyl-1,1-dioxo-6-phenyl-[1,2]thiazinan-2-ylmethyl)-N-[2-(2-oxo-piperidin-1-yl)-ethyl]-benzamide]: the half-inhibitory concentration (IC50) is 5110 nM.

Consider `O=C(CO)N1CCN(c2ccc(CN3CCCCC(c4ccccc4)S3(=O)=O)cc2)CC1` (single isomer, unassigned) [Example 316, 1-{4-[4-(1,1-Dioxo-7-phenyl-[1,2]thiazepan-2-ylmethyl)-phenyl]-piperazin-1-yl}-2-hydroxy-ethanone], for which the half-inhibitory concentration (IC50) turned out to be 173 nM.

Take `CC(=O)N1CCN(c2ccc(CN3[C@H](C)CC(c4ccccc4)S3(=O)=O)c(F)c2)CC1` (single isomer, unassigned) [Example 65]: the IC50 came to 2300 nM.

Regarding `C[C@H]1CCC(c2ccccc2)S(=O)(=O)N1Cc1ccc(N[C@H]2CC[C@H](n3cnnc3)CC2)cc1F` (stereo partly drawn) [Example 232, [3-Fluoro-4-((3S)-methyl-1,1-dioxo-6-phenyl-[1,2]thiazinan-2-ylmethyl)-phenyl]-(4-[1,2,4]triazol-4-yl-cyclohexyl)-amine], the 50% inhibitory concentration (IC50) came to 275 nM.

As for `C[C@H](O)C(=O)N1CCN(c2ccc(CN3[C@@H](C)CCC(c4ccccc4)S3(=O)=O)c(F)c2)CC1` (single isomer, unassigned) [Example 79], the IC50 turned out to be 82 nM.

Consider `C[C@H]1CCC(c2ccccc2)S(=O)(=O)N1Cc1ccc(N2CCC(c3cc(O)no3)CC2)cc1F` (single isomer, unassigned) [Example 153], for which the 50% inhibitory concentration (IC50) is 55 nM.

Still in this test, the particulars now being: read-out: RORc IC50.
As for `C[C@H]1CCC(c2ccccc2)S(=O)(=O)N1Cc1ccc(N2CCn3c(cnc3C(N)=O)C2)cc1F` (stereo partly drawn) [Example 403, 7-[3-Fluoro-4-((3S)-methyl-1,1-dioxo-6-phenyl-[1,2]thiazinan-2-ylmethyl)-phenyl]-5,6,7,8-tetrahydro-imidazo[1,5-a]pyrazine-3-carboxylic acid amide], the half-maximal inhibitory concentration (IC50) was 346 nM.

For the molecule `C[C@H]1CCC(c2ccccc2)S(=O)(=O)N1Cc1ccc(N2CCN3C(=O)COCC3C2)cc1F` (stereo partly drawn) [Example 417, 8-[3-Fluoro-4-((3S)-methyl-1,1-dioxo-6-phenyl-[1,2]thiazinan-2-ylmethyl)-phenyl]-hexahydro-pyrazino[2,1-c][1,4]oxazin-4-one], the 50% inhibitory concentration (IC50) stood at 231 nM.

Turning to `C[C@H]1CCC(c2ccccc2)S(=O)(=O)N1Cc1ccc(N2CCN3C(=O)OCC3C2)cc1F` (single isomer, unassigned) [Example 420], the 50% inhibitory concentration (IC50) was determined as 28 nM.

For the origin of these results see patent publication US9115101B2 (Genentech, Inc., priority 2012, dated 2015).
